Assays:
[1] = target: T1, aggregated synthetic Aβ40 (Homo sapiens, UniProt P05067); assay: Thiazin-red R displacement fluorescence assay on aggregated A-beta; type: binding; settings: displacement of Thiazin-red R from aggregated Aβ40; compound 0.3 nM to 10000 nM; 30 min room temperature; Ex 531 nm/Em 595 nm
T1 construct: Synthetic Aβ40 is aggregated at a concentration of 50 μM

[2] = target: T2, aggregated recombinant human-microtubule associated protein Tau (Homo sapiens, UniProt P10636); assay: Thiazin-red R displacement fluorescence assay on aggregated Tau; type: binding; settings: displacement of Thiazin-red R from aggregated Tau; compound 0.3 nM to 10000 nM; 30 min room temperature; Ex 531 nm/Em 595 nm
T2 construct: Recombinant human-microtubule associated protein Tau purified from E. coli is aggregated at a concentration of 5 μM with Arachidonic Acid (100 μM) in Tris 10 mM pH8, 24 h at 37° C
T2 sequence (P10636 whole entry): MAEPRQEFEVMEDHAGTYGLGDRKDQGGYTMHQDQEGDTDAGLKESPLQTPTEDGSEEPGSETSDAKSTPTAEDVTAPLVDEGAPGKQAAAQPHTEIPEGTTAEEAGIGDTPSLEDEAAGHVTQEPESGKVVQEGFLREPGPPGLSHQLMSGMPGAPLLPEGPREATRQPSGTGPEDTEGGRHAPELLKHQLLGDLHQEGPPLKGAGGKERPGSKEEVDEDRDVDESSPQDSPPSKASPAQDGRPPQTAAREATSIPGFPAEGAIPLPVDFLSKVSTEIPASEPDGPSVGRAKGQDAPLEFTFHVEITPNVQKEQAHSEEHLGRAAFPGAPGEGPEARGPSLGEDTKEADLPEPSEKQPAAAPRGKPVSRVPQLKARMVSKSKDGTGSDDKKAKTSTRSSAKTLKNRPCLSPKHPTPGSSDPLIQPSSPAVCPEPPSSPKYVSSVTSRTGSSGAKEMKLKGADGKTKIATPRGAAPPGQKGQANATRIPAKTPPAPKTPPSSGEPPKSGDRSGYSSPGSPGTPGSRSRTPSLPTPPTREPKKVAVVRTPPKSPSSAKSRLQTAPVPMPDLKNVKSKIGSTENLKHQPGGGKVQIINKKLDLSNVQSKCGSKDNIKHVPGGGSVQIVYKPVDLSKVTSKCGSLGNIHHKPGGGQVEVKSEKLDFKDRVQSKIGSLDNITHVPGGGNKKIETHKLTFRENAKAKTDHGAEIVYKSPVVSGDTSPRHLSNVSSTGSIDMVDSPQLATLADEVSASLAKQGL

T1 sequence (P05067 672-711 limits assumed): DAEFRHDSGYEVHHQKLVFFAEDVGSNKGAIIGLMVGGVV

Row | SMILES | IC50 [1] [µM] | IC50 [2] [µM]
1 | COc1cc(/C=c2\sc3nc(-c4ccc(OCCF)cc4)cn3c2=O)cc(Cl)c1O [Example 79, 2-[1-(3-Chloro-4-hydroxy-5-methoxy-phenyl)-meth-(Z)-ylidene]-6-(4-(2-fluoroethoxyl)phenyl)-imidazo[2,1-b]thiazol-3-one] | 0.025 | 0.006
2 | COc1ccc(-c2nc3s/c(=C\c4cc(Cl)c(O)c(OC)c4)c(=O)n3c2C)cc1 [Example 14, 2-[1-(3-Chloro-4-hydroxy-5-methoxy-phenyl)-meth-(Z)-ylidene]-6-(4-methoxy-phenyl)-5-methyl-imidazo[2,1-b]thiazol-3-one] | 0.466 | 0.037
3 | COc1cc(/C=c2\sc3nc(-c4cccc(C(F)(F)F)c4)cn3c2=O)cc(Cl)c1O [Example 24, 2-[1-(3-Chloro-4-hydroxy-5-methoxy-phenyl)-meth-(Z)-ylidene]-6-(3-trifluoromethyl-phenyl)-imidazo[2,1-b]thiazol-3-one] | 0.123 | 0.003
4 | COc1cc(/C=c2\sc3nc(-c4cccc(F)c4)cn3c2=O)cc(Cl)c1O [Example 57, 2-[1-(3-Chloro-4-hydroxy-5-methoxy-phenyl)-meth-(Z)-ylidene]-6-(3-fluoro-phenyl)-imidazo[2,1-b]thiazol-3-one] | 3.32 | 0.006
5 | COc1cc(/C=c2\sc3nc(-c4ccnc(C)c4)cn3c2=O)cc(Cl)c1O [Example 75, 2-[1-(3-Chloro-4-hydroxy-5-methoxy-phenyl)-meth-(Z)-ylidene]-6-(2-methylpyridin-4-yl)-imidazo[2,1-b]thiazol-3-one] | 0.122 | 0.0013
6 | COc1cc(/C=c2\sc3nc(-c4ccc(N5CCCC5)cc4)cn3c2=O)cc(Cl)c1O [Example 90, 2-[1-(3-Chloro-4-hydroxy-5-methoxy-phenyl)-meth-(Z)-ylidene]-6-(4-(pyrrolidin-1-yl)phenyl)-imidazo[2,1-b]thiazol-3-one] | 0.016 | 0.037
7 | COc1cc(/C=c2\sc3nc(-c4cccc(C(=O)O)c4)cn3c2=O)cc(Cl)c1O [Example 104, 3-{2-[1-(3-Chloro-4-hydroxy-5-methoxy-phenyl)-meth-(Z)-ylidene]-3-oxo-2,3-dihydro-imidazo[2,1-b]thiazol-6-yl}-benzoic acid] | > 10 | 0.019
8 | COc1cc(/C=c2\sc3nc(-c4cccc(C(F)(F)F)c4)cn3c2=O)cc(OC)c1O [Example 19, 2-[1-(4-Hydroxy-3,5-dimethoxy-phenyl)-meth-(Z)-ylidene]-6-(3-trifluoromethyl-phenyl)-imidazo[2,1-b]thiazol-3-one] | 0.115 | 0.001
9 | COc1cc(/C=c2\sc3nc(-c4ccc(C(=O)N(C)C)cc4)cn3c2=O)cc(Cl)c1O [Example 126, 4-{2-[1-(3-Chloro-4-hydroxy-5-methoxy-phenyl)-meth-(Z)-ylidene]-3-oxo-2,3-dihydro-imidazo[2,1-b]thiazol-6-yl}-N,N-dimethyl-benzamide] | 0.55 | 0.028
10 | CCCOc1cc(/C=c2\sc3nc(-c4ccncc4)cn3c2=O)cc(F)c1O [Example 122, 2-[1-(3-Fluoro-4-hydroxy-5-propoxy-phenyl)-meth-(Z)-ylidene]-6-pyridin-4-yl-imidazo[2,1-b]thiazol-3-one] | 2.67 | 0.0235
11 | COc1cc(/C=c2\sc3nc(-c4ccc(Cl)cc4)cn3c2=O)cc(F)c1O [Example 4, 6-(4-Chloro-phenyl)-2-[1-(3-fluoro-4-hydroxy-5-methoxy-phenyl)-meth-(Z)-ylidene]-imidazo[2,1-b]thiazol-3-one] | 0.393 | 0.011
12 | CCCOc1cc(/C=c2\sc3nc(-c4cccs4)cn3c2=O)cc(Cl)c1O [Example 132, 2-[1-(3-Chloro-4-hydroxy-5-propoxy-phenyl)-meth-(Z)-ylidene]-6-thiophen-2-yl-imidazo[2,1-b]thiazol-3-one] | 0.718 | 0.041
13 | C=CCNC(=O)c1cccc(-c2cn3c(=O)/c(=C/c4cc(Cl)c(O)c(OC)c4)sc3n2)c1 [Example 113, N-Allyl-3-{2-[1-(3-chloro-4-hydroxy-5-methoxy-phenyl)-meth-(Z)-ylidene]-3-oxo-2,3-dihydro-imidazo[2,1-b]thiazol-6-yl}-benzamide] | 1.16 | 0.016
14 | COc1cc(/C=c2\sc3nc(-c4ccc(C(=O)N(C)CCF)cc4)cn3c2=O)cc(Cl)c1O [Example 125, 4-{2-[1-(3-Chloro-4-hydroxy-5-methoxy-phenyl)-meth-(Z)-ylidene]-3-oxo-2,3-dihydro-imidazo[2,1-b]thiazol-6-yl}-N-(2-fluoro-ethyl)-N-methyl-benzamide] | 0.621 | 0.017
15 | COc1cc(/C=c2\sc3nc(-c4cccc(C(N)=O)c4)cn3c2=O)cc(Cl)c1O [Example 86, 3-{2-[1-(3-Chloro-4-hydroxy-5-methoxy-phenyl)-meth-(Z)-ylidene]-3-oxo-2,3-dihydro-imidazo[2,1-b]thiazol-6-yl}-benzamide] | 1.24 | 0.001
16 | COc1cc(/C=c2\sc3nc(-c4ccc(Cl)cc4)cn3c2=O)cc(Br)c1O [Example 7, 6-(4-Chloro-phenyl)-2-[1-(3-bromo-4-hydroxy-5-methoxy-phenyl)-meth-(Z)-ylidene]-imidazo[2,1-b]thiazol-3-one] | 0.018 | 0.002
17 | CCCOc1cc(/C=c2\sc3nc(-c4ccc(-n5cnc(C)c5)nc4)cn3c2=O)cc(Cl)c1O [Example 112, 2-[1-(3-Chloro-4-hydroxy-5-propoxy-phenyl)-meth-(Z)-ylidene]-6-[6-(4-methyl-imidazol-1-yl)-pyridin-3-yl]-imidazo[2,1-b]thiazol-3-one] | 0.493 | 0.008
18 | COc1cc(/C=c2\sc3nc(-c4cccc(CCl)c4)cn3c2=O)cc(Cl)c1O [Example 67, 2-[1-(3-Chloro-4-hydroxy-5-methoxy-phenyl)-meth-(Z)-ylidene]-6-(3-(chloromethyl)phenyl)-imidazo[2,1-b]thiazol-3-one] | 0.009 | 0.0008
19 | COc1cc(/C=c2\sc3nc(-c4cc(C)nc(C)c4)cn3c2=O)cc(F)c1O [Example 64, 2-[1-(3-Fluoro-4-hydroxy-5-methoxy-phenyl)-meth-(Z)-ylidene]-6-(2,6-dimethyl-pyridin-4-yl)-imidazo[2,1-b]thiazol-3-one] | 0.406 | 0.032
20 | COc1cc(/C=c2\sc3nc(-c4ccnc(C)c4)cn3c2=O)cc(OC)c1O [Example 16, 2-[1-(4-Hydroxy-3,5-dimethoxy-phenyl)-meth-(Z)-ylidene]-6-(2-methyl-pyridin-4-yl)-imidazo[2,1-b]thiazol-3-one] | 0.032 | 0.008
21 | COc1cc(/C=c2\sc3nc(-c4ccncc4)cn3c2=O)cc(Br)c1O [Example 70, 2-[1-(3-Bromo-4-hydroxy-5-methoxy-phenyl)-meth-(Z)-ylidene]-6-(pyridin-4-yl)-imidazo[2,1-b]thiazol-3-one] | 0.103 | 0.0013
22 | COc1cc(/C=c2\sc3nc(-c4ccc(C(=O)NCCCF)cc4)cn3c2=O)cc(Cl)c1O [Example 117, 4-{2-[1-(3-Chloro-4-hydroxy-5-methoxy-phenyl)-meth-(Z)-ylidene]-3-oxo-2,3-dihydro-imidazo[2,1-b]thiazol-6-yl}-N-(3-fluoro-propyl)-benzamide] | 0.643 | 0.005
23 | COc1cc(/C=c2\sc3nc(-c4cccc(OC(F)(F)F)c4)cn3c2=O)cc(Cl)c1O [Example 22, 2-[1-(3-Chloro-4-hydroxy-5-methoxy-phenyl)-meth-(Z)-ylidene]-6-(3-trifluoromethoxy-phenyl)-imidazo[2,1-b]thiazol-3-one] | 0.198 | 0.003
24 | COc1cc(/C=c2\sc3nc(-c4ccc(C(=O)NCCCF)cc4)cn3c2=O)cc(Cl)c1O (single isomer, unassigned) [Example 133] | 0.086 | 0.002
25 | CCCN(C)C(=O)c1ccc(-c2cn3c(=O)/c(=C/c4cc(Cl)c(O)c(OC)c4)sc3n2)cc1 [Example 128, 4-{2-[1-(3-Chloro-4-hydroxy-5-methoxy-phenyl)-meth-(Z)-ylidene]-3-oxo-2,3-dihydro-imidazo[2,1-b]thiazol-6-yl}-N-methyl-N-propyl-benzamide] | 0.218 | 0.009
26 | CCCOc1cc(/C=c2\sc3nc(-c4ccccn4)cn3c2=O)cc(Cl)c1O [Example 136, 2-[1-(3-Chloro-4-hydroxy-5-propoxy-phenyl)-meth-(Z)-ylidene]-6-pyridin-2-yl-imidazo[2,1-b]thiazol-3-one] | 0.293 | 0.03
27 | COc1cc(/C=c2\sc3nc(-c4ccc(NC(C)=O)cc4)cn3c2=O)cc(Cl)c1O [Example 103, N-(4-{2-[1-(3-Chloro-4-hydroxy-5-methoxy-phenyl)-meth-(Z)-ylidene]-3-oxo-2,3-dihydro-imidazo[2,1-b]thiazol-6-yl}-phenyl)-acetamide] | 1.16 | 0.024
28 | COc1cc(/C=c2\sc3nc(-c4ccccc4F)cn3c2=O)cc(Cl)c1O [Example 53, 2-[1-(3-Chloro-4-hydroxy-5-methoxy-phenyl)-meth-(Z)-ylidene]-6-(2-fluoro-phenyl)-imidazo[2,1-b]thiazol-3-one] | 5.65 | 0.016
29 | COc1cc(/C=c2\sc3nc(-c4ccc(C(=O)O)cc4)cn3c2=O)cc(F)c1O [Example 138, 4-{2-[1-(3-Fluoro-4-hydroxy-5-methoxy-phenyl)-meth-(Z)-ylidene]-3-oxo-2,3-dihydro-imidazo[2,1-b]thiazol-6-yl}-benzoic acid] | 0.898 | 0.014
30 | CCCOc1cc(/C=c2\sc3nc(-c4ccsc4)cn3c2=O)cc(Cl)c1O [Example 131, 2-[1-(3-Chloro-4-hydroxy-5-propoxy-phenyl)-meth-(Z)-ylidene]-6-thiophen-3-yl-imidazo[2,1-b]thiazol-3-one] | 0.979 | 0.026
